Experimental data as given in US20050244472A1, “Intraocular drug delivery systems containing excipients with reduced toxicity and related methods” (Allergan, Inc., priority 2004, published 2005).
Read-outs that look alike come from different tables or passages of the source.

Columns and labels:
ARPE-19 cells [1] = format: cell-based
Procedure: Cell morphology was visualized using light microscopy. Cell morphology observation using light microscopy permits determination of (i) cell number and density and (ii) whether or not cells in contact with an excipient agent display modified phenotype compared to a non-treated population of cells.
Cell morphology was analyzed in parallel by semi-quantitative scoring ranging from 5 to 1, from basal to lethal phenotype respectively, as shown in FIG. 23.
More specifically, cells were removed from an incubator for examination. Morphological shape of cells was visualized using a light microscope and CCD camera. Every 3 wells of a given concentration was observed through image analysis software. Then, a representative photograph describing the average appearance of cells was saved. The supernatant was either, kept for further predefined experiments to perform, or removed using vacuum-pump.
Resulting semi-quantitative scoring is represented as a function of time course and dose response. Score 5: wild type phenotype of non-treated cells, 100% confluent adherent cells. This phenotype very much vary following post-seeding time. For example, at confluence ARPE-19 cells at 1 day appear well defined with visible outer membrane and dark grey cytoplasm. After 3 days of confluence, limits between cells become less visible and cells adopt a more hexagonal shape and constitute an epithelium-like uniform dense structure. Score 4: density<100%. Cell shape has changed, some spaces are present between cells, few cells possibly detached. Score 3: […]. Spaces are sometimes present among cells, areas appears confluent while in others, cells detached. General cell shape starts showing non negligible alterations. Score 2: Cell density<50%. Cells adopt exclusively stressed appearance, presence of mass dead floating cells. Score 1: Cell density<10%. Presence of almost exclusively dead cells.
Based on quotation, each condition of the applied compound was given a score which allow to a morphology evolution profile to be prepared, ie. cell morphology as a function of compound concentration and time of exposure. […]

ARPE-19 cells [2] = assay: in vitro
Source text: (§1) Cell viability and cell morphology were examined to evaluate the toxicity of excipients on retinal pigment epithelial cells. The human retina cell line used in these experiments is the ARPE-19 cell line (human adult-derived retinal pigmented epithelial cells). […] They form tight-junctions with transepithelial resistance of monolayers (Dunn K C et al., supra). From a molecular standpoint, it appears that ARPE-19 express a huge pattern of genes similar to those expressed by human RPE from fresh explant which could account for their physiological function (Klimanskaya I. et al., “Derivation and comparative assessment of retinal pigment epithelium from human embryonic stem cells using transcriptomics”, Cloning and Stem Cells, 2004, 6(3):217-45).
(§2) ARPE-19 cells are widely used as a retinal model that resemble physiological properties of RPE cells. Similar methods of culturing ARPE-19 cells and cytotoxicity assays can be found in Yeung et al., “Cytotoxicity of triamcinolone on cultured human retinal pigment epithelial cells: comparison with dexamethasone and hydrocortisone”, Jpn J. Ophthalmol, 2004; 48:236-242. Cell viability and cell morphology were examined using conventional colormetric and visual methods. Viability and morphology measurements were obtained at 24 hours, 48 hours, and 72 hours after exposure to an excipient composition.
(§3) To assess cell viability, mitochondrial metabolism was quantified through conventional colorometric assays (i.e., the MTT assay). This colorimetric assay utilizes 3-(4,5-dimethylthiazol-2-yl)-2,5-diphenyltetrazolium bromide (MTT) and correlates mitochondrial metabolism and cell viability through measurement of dehydrogenase activity which converts a substrate into crystal. More specifically, the assay measures the activity of living cells through mitochondrial dehydrogenases. When dissolved in culture cell medium, MTT solution appears dark orange. Mitochondrial dehydrogenases of viable cells degrade MTT by cleaving the tetrazolium ring yielding to formation of a purple formazan crystal, which is insoluble in water. Crystals are subsequently dissolved in isopropanol solution. A resulting purple solution is spectrophotometrically measured. Cell viability is relative to amount of formazan and calculated as a percentage of remaining treated compared to non-treated cells.
(§4) Results from the MTT assay were expressed as a percentage of cell viability calculated using the following equation: % cell viability=ODtest/ODcontrol×100.
(§5) For each experiment, one concentration was performed in triplicate. Each point was spectrophotometrically read twice. Average of readings was calculated, then average from these 3 values was determined.
(§6) After 3 experiments were independently completed under the same conditions, a graph was plotted with cell viability expressed as a function of concentration (dose response) and for various incubation period (time course). The IC50 was then estimated based on the graphed data.
(§7) More specifically, cell density in 24-multiwell plates was observed on the day of the experiment to check if confluence of the cells was reached. Aliquots of MTT concentrated solutions were removed from a freezer at −20° C. and thawed at room temperature. Cell medium was warmed at 37° C. before use. Appropriated tubes for diluting compounds were prepared. Higher concentrations of each excipient agent was prepared. Serial dilution was then performed in cell medium (DMEM:F12+10% FBS).
(§8) Cell culture medium in the 24-well plate was removed using vacuum-pump. Cells were then stimulated with 0.5 ml final volume for each concentration of one given excipient agent. Distribution of the excipient-containing solution was performed using automated pipet-aid in sterile environment (under PSM) or not depending on time of compounds and duration of incubation.
(§9) After stimulation, cells were replaced in a CO2 incubator for the required time of exposure.

in vitro = conditions: human
Source text: as §1, §2, §3, §4, §5, §6, §7, §8, §9

[3] = pH of excipient-containing incubating solutions; format: physicochemical
Procedure: (§10) For each concentration of tested compound, pH and osmolarity parameters were measured.

[4] = Osmolarity of excipient-containing incubating solutions; format: physicochemical
Procedure: Osmolarity was measured using osmometer type 13/13DR from Roebling (Berlin, GR).
as §10

[5] = 0.05% excipient dilution in culture medium
[6] = 0.1% excipient dilution in culture medium
[7] = 0.5% excipient dilution in culture medium
[8] = 1% excipient dilution in culture medium
[9] = 2% excipient dilution in culture medium
[10] = […] excipient dilution in culture medium

OCc1ccccc1 [Benzyl alcohol, benzyl alcohol]
living cells (morphology observation) (ARPE-19 cells [1]): no living cells survived
Morphology limit concentration (%) (ARPE-19 cells [1]; human): 0.07%
Cell Morphology score, Mean (ARPE-19 cells [1]; human, 24 h, 0.05 %): 3.3
Cell Morphology score, Mean (ARPE-19 cells [1]; human, 24 h, 0.1 %): 3.0
Cell Morphology score, Mean (ARPE-19 cells [1]; human, 24 h, 0.5 %): 1.0
Cell Morphology score, Mean (ARPE-19 cells [1]; human, 24 h, 1 %): 1.0
Cell Morphology score, Mean (ARPE-19 cells [1]; human, 24 h, 2 %): 1.0
Cell Morphology score, Mean (ARPE-19 cells [1]; human, 24 h, […]): 1.0
Cell Morphology score, Mean (ARPE-19 cells [1]; human, 48 h, 0.05 %): 3.7
Cell Morphology score, Mean (ARPE-19 cells [1]; human, 48 h, 0.1 %): 3.0
Cell Morphology score, Mean (ARPE-19 cells [1]; human, 48 h, 0.5 %): 1.0
Cell Morphology score, Mean (ARPE-19 cells [1]; human, 48 h, 1 %): 1.0
Cell Morphology score, Mean (ARPE-19 cells [1]; human, 48 h, 2 %): 1.0
Cell Morphology score, Mean (ARPE-19 cells [1]; human, 48 h, […]): 1.0
Cell Morphology score, Mean (ARPE-19 cells [1]; human, 72 h, 0.05 %): 3.3
Cell Morphology score, Mean (ARPE-19 cells [1]; human, 72 h, 0.1 %): 3.0
Cell Morphology score, Mean (ARPE-19 cells [1]; human, 72 h, 0.5 %): 1.0
Cell Morphology score, Mean (ARPE-19 cells [1]; human, 72 h, 1 %): 1.0
Cell Morphology score, Mean (ARPE-19 cells [1]; human, 72 h, 2 %): 1.0
Cell Morphology score, Mean (ARPE-19 cells [1]; human, 72 h, […]): 1.0
overall cytotoxicity to ARPE-19 cells (conclusion in words) (ARPE-19 cells [2]): very aggressive impact
cytotoxicity at 0.05 % (in vitro): ~45%
viability at 24 h, 0.05 % (in vitro; Cell Viability): 56.1%
viability at 24 h, 0.1 % (in vitro; Cell Viability): 48%
viability at 48 h, 0.05 % (in vitro; Cell Viability): 60.9%
viability at 48 h, 0.1 % (in vitro; Cell Viability): 49%
viability at 48 h, 0.5 % (in vitro; Cell Viability): 1.2%
viability at 72 h, 0.05 % (in vitro; Cell Viability): 57.5%
viability at 72 h, 0.1 % (in vitro; Cell Viability): 49.1%
viability at 24 h, 0.05 % (in vitro; Cell Viability, Mean (%)): 55.7%
viability at 24 h, 0.1 % (in vitro; Cell Viability, Mean (%)): 45.9%
viability at 24 h, 0.5 % (in vitro; Cell Viability, Mean (%)): 13.3%
viability at 24 h, 1 % (in vitro; Cell Viability, Mean (%)): 0.4%
viability at 24 h, 2 % (in vitro; Cell Viability, Mean (%)): 0.3%
viability at 24 h, […] (in vitro; Cell Viability, Mean (%)): 0.4%
viability at 48 h, 0.05 % (in vitro; Cell Viability, Mean (%)): 57.3%
viability at 48 h, 0.1 % (in vitro; Cell Viability, Mean (%)): 42%
viability at 48 h, 0.5 % (in vitro; Cell Viability, Mean (%)): 1.5%
viability at 48 h, 1 % (in vitro; Cell Viability, Mean (%)): 1.5%
viability at 48 h, 2 % (in vitro; Cell Viability, Mean (%)): 1.2%
viability at 48 h, […] (in vitro; Cell Viability, Mean (%)): 1.3%
viability at 72 h, 0.05 % (in vitro; Cell Viability, Mean (%)): 53.7%
viability at 72 h, 0.1 % (in vitro; Cell Viability, Mean (%)): 42.2%
viability at 72 h, 0.5 % (in vitro; Cell Viability, Mean (%)): 1.1%
viability at 72 h, 1 % (in vitro; Cell Viability, Mean (%)): 0.9%
viability at 72 h, 2 % (in vitro; Cell Viability, Mean (%)): 1%
viability at 72 h, […] (in vitro; Cell Viability, Mean (%)): 1%
pH [3, 5]: 8
pH [3, 6]: 8.1
pH [3, 7]: 8
pH [3, 8]: 7.9
pH [3, 9]: 8
pH [3, 10]: 7.9
mOsm [4, 5]: 293 mOsm
mOsm [4, 6]: 307 mOsm
mOsm [4, 7]: 347 mOsm
mOsm [4, 8]: 398 mOsm
mOsm [4, 9]: 493 mOsm
mOsm [4, 10]: 444 mOsm
